Data as given in PubChem BioAssay (NCI).
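Test compounds were applied to cells in 96-well plates for 48 hours at 5 doses. The concentration for 50% growth inhibition is given as GI50. TGI: concentration producing complete growth inhibition.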

Assays:
Assay in all cases: NCI anticancer screen, dose series, 48 h
SR leukemia = tested on: SR leukemia
HS 578T breast = tested on: HS 578T breast
NCI-H522 lung = tested on: NCI-H522 lung
OVCAR-3 ovarian = tested on: OVCAR-3 ovarian
T-47D breast = tested on: T-47D breast
SK-MEL-28 melanoma = tested on: SK-MEL-28 melanoma
DU-145 prostate = tested on: DU-145 prostate
COLO 205 colon = tested on: COLO 205 colon
KM12 colon = tested on: KM12 colon
SF-295 CNS = tested on: SF-295 CNS
HCC-2998 colon = tested on: HCC-2998 colon

Row | Structure (SMILES) | TGI (SR leukemia) [µM] | TGI (HS 578T breast) [µM] | TGI (NCI-H522 lung) [µM] | TGI (OVCAR-3 ovarian) [µM] | TGI (T-47D breast) [µM] | TGI (SK-MEL-28 melanoma) [µM] | TGI (DU-145 prostate) [µM] | TGI (COLO 205 colon) [µM] | TGI (KM12 colon) [µM] | TGI (SF-295 CNS) [µM] | TGI (HCC-2998 colon) [µM] | GI50 (OVCAR-3 ovarian) [µM] | GI50 (KM12 colon) [µM] | GI50 (SR leukemia) [µM] | GI50 (HS 578T breast) [µM] | GI50 (T-47D breast) [µM] | GI50 (SK-MEL-28 melanoma) [µM] | GI50 (DU-145 prostate) [µM] | GI50 (SF-295 CNS) [µM]
1 | COC1=C(OC)C(=O)C(Cc2c(Cl)nc3sc(C)cn23)=C(C)C1=O | 51 | 66.4 | 30.2 | 26.1 | > 100 | 32.2 | 61 | 34.7 | 27.8 | 32.1 | 39 |  |  |  |  |  |  |  | 
2 | Nc1ncnc2nc[nH]c12 |  |  | 220 | > 250 |  | > 250 |  | > 221 | > 158 | > 250 | > 191 | 113 |  |  |  |  |  |  | 
3 | O=C(Nc1ccc(Cl)cc1)c1cc2cc(N=Nc3ccccc3Cl)ccc2oc1=O | 34.9 |  | 53.2 | 75.6 |  | 55.7 |  | > 100 |  | 91.9 | 41.2 |  |  |  |  |  |  |  | 
4 | O=C([O-])C[n+]1ccccc1 |  | > 100 | > 100 | > 100 | > 100 | > 100 | > 100 | > 100 | > 100 | > 100 |  |  |  |  |  |  |  |  | 
5 | CCOc1ccc(NC(=O)C(=O)CC(=O)c2sc(NNC(C)=O)nc2C)cc1 | > 100 |  | > 100 |  |  | > 100 |  | > 100 | > 100 | > 100 | > 100 |  |  |  |  |  |  |  | 
6 | CC(CCN)(CCN)[N+](=O)[O-] | > 100 | > 100 | > 100 | > 100 | > 100 | > 100 | > 100 | > 100 | > 100 | > 100 |  |  |  |  |  |  |  |  | 
7 | C[C@]12C=CC(=O)C=C1CC[C@@H]1[C@@H]2CC[C@]2(C)OC(=O)CC[C@@H]12 | > 489 | > 500 | 457 | > 500 | > 500 | > 500 | > 500 | > 500 | > 500 | > 500 | > 409 |  |  |  |  |  |  |  | 
8 | CCOC(=O)c1cnc2oc3ccc(O)cc3c2c1C | > 100 | > 100 |  | > 100 | > 100 | > 100 | > 100 | > 100 | > 100 | > 100 | > 100 |  | 70.3 |  |  |  |  |  | 
9 | CCOC(=O)C1=C(C)OC2(O)C=CC(O)=C3C(=O)N(c4ccccc4)C(=O)C312 (configuration not stated) | 53.2 | 61.7 | 35.6 | > 100 | > 100 | 49.7 | > 100 | > 100 | > 100 | > 100 | 73.9 |  |  |  |  |  |  |  | 
10 | COCCOC(=O)c1c(C)n([O-])c2cc(Cl)c(Cl)cc2[n+]1=O | 18.9 | > 100 | 54.6 | 34.5 | 61.2 | 61.7 | 25.8 | 25 | 25.7 | 84.2 |  |  |  |  |  |  |  |  | 
11 | O=C(O)c1cc([N+](=O)[O-])cc2c(=O)c3cnccc3[nH]c12 | > 100 | > 100 | > 100 | > 100 | > 100 | > 100 | > 100 | > 100 | > 100 | > 100 | > 100 |  |  |  |  |  |  |  | 
12 | CC(C)=CCC/C(C)=C/CC/C(C)=C/CC/C(C)=C/C=C/C=C(\C)CC/C=C(\C)CC/C=C(\C)CCC=C(C)C |  | > 100 | 31.4 | > 100 | > 100 | > 100 | > 100 | > 100 | 63.3 | > 100 | > 100 |  |  |  |  |  |  |  | 
13 | NN(CC(=O)O)CC(=O)O |  | > 100 | > 100 | > 100 | > 100 | > 100 | > 100 | > 100 | > 100 | > 100 | > 100 |  |  |  |  |  |  |  | 
14 | CCCCCCCCCCCCCCCCCCOc1ccccc1CC(=O)OCC[N+]1(C)CCCCC1 | 4.97 | 6.53 |  |  | 9.37 | 6.33 | 9.61 |  |  | 9.62 |  |  |  | 1.93 | 2.32 | 2.49 | 2.51 | 3.02 | 2.93
15 | COc1cc2c(c(O)c1OC)-c1c(cc(OC)c(OC)c1OC)CC(C)C(C)C2 (configuration not stated) | 57 | > 100 | > 100 | > 100 | > 100 | > 100 | > 100 | > 100 | > 100 | > 100 | > 100 |  |  |  |  |  |  |  | 
16 | CN1CCOC(c2ccc(Cl)cc2)O1 (configuration not stated) | > 100 |  | > 100 | > 100 |  | > 100 |  | > 100 | > 100 | > 100 | > 100 |  |  |  |  |  |  |  | 
